# Assay results reported in patent publication US12006527B2, “Coryneform bacterium transformant and method for producing 2-phenylethanol using same” (Research Institute of Innovative Technology for the Earth, priority 2018, dated 2024).
# Entries after “also recorded” stand apart in the source; their conditions may differ.
# What was measured:
# Experiment in all cases: Growth inhibition by 2-phenylethanol in aerobic culture (OD610)
# Assay type in all cases: cell-based
# Escherichia coli MG1655 = details: aerobic shaking culture, LB-liquid medium
# Description: Tests regarding growth inhibition by 2-phenylethanol in aerobic culture were carried out on Corynebacterium glutamicum, Escherichia coli, Pseudomonas putida, and Kluyveromyces marxianus. Escherichia coli MG1655 was applied to an LB-agar plate [containing 1% polypeptone, 0.5% yeast extract, 0.5% sodium chloride, and 1.5% agar], and was left to stand at 37° C. for 15 hours in a dark place. One platinum loop of Escherichia coli MG1655 grown on the plate described above was inoculated in a test tube having therein 10 ml of an LB-liquid medium [containing 1% polypeptone, 0.5% yeast extract, and 0.5% sodium chloride], and was subjected to aerobic shaking culture at 37° C. for 13 hours. Escherichia coli MG1655 grown under the above-described conditions was inoculated in 100 ml of the LB-liquid medium so that the initial bacterial cell concentration OD610=0.05 was achieved. Simultaneously, 2-phenylethanol was added so that the final concentrations thereof became 0, 10, 20, 30, 40, and 50 mM, and aerobic shaking culture was carried out at 33° C. The growth of bacterial cells was determined by measuring the absorbance of OD610.
# [1] = system: Corynebacterium glutamicum R; details: aerobic shaking culture 33° C., A-liquid medium
# Description: Tests regarding growth inhibition by 2-phenylethanol in aerobic culture were carried out on Corynebacterium glutamicum, Escherichia coli, Pseudomonas putida, and Kluyveromyces marxianus. Corynebacterium glutamicum R was applied to an A-agar plate (the same as that described above), and was left to stand in a dark place at 33° C. for 15 hours. One platinum loop of Corynebacterium glutamicum R grown on the plate described above was inoculated in a test tube having therein 10 ml of the A-liquid medium, and aerobic shaking culture was carried out at 33° C. for 13 hours. Corynebacterium glutamicum R grown under the above-described conditions was inoculated in 100 ml of the A-liquid medium (the same as that described above) so that the initial bacterial cell concentration OD610=0.05 was achieved. Simultaneously, 2-phenylethanol was added so that the final concentrations thereof became 0, 10, 20, 30, 40, and 50 mM, and aerobic shaking culture was carried out at 33° C. The growth of bacterial cells was determined by measuring the absorbance of OD610.
# Kluyveromyces marxianus = details: aerobic shaking culture 40° C., YPD-liquid medium
# Description: Tests regarding growth inhibition by 2-phenylethanol in aerobic culture were carried out on Corynebacterium glutamicum, Escherichia coli, Pseudomonas putida, and Kluyveromyces marxianus. Further, Kluyveromyces marxianus was applied to a YPD-agar plate [containing 2% polypeptone, 1% yeast extract, 2% glucose, and 1.5% agar], and was left to stand at 30° C. for 15 hours in a dark place. One platinum loop of Kluyveromyces marxianus grown on the plate described above was inoculated in a test tube having therein 10 ml of a YPD-liquid medium [containing 2% polypeptone, 1% yeast extract, and 2% glucose], and was subjected to aerobic shaking culture at 40° C. for 13 hours. Kluyveromyces marxianus grown under the above-described conditions was inoculated in 100 ml of the YPD-liquid medium so that the initial bacterial cell concentration OD610=0.05 was achieved. Simultaneously, 2-phenylethanol was added so that the final concentrations thereof became 0, 10, 20, 30, 40, and 50 mM, and aerobic shaking culture was carried out at 40° C. The growth of bacterial cells was determined by measuring the absorbance of OD610.
# Pseudomonas putida S12 = details: aerobic shaking culture 30° C., LB(+glucose)-liquid medium
# Description: Tests regarding growth inhibition by 2-phenylethanol in aerobic culture were carried out on Corynebacterium glutamicum, Escherichia coli, Pseudomonas putida, and Kluyveromyces marxianus. Pseudomonas putida S12 was applied to an LB-agar plate [containing 1% polypeptone, 0.5% yeast extract, 0.5% sodium chloride, and 1.5% agar], and was left to stand at 30° C. for 15 hours in a dark place. One platinum loop of Pseudomonas putida S12 grown on the plate described above was inoculated in a test tube having therein 10 ml of an LB(+glucose)-liquid medium [containing 1% polypeptone, 0.5% yeast extract, 0.5% sodium chloride, and 0.4% glucose], and was subjected to aerobic shaking culture at 33° C. for 13 hours. The Pseudomonas putida S12 strain grown under the above-described conditions was inoculated in 100 ml of the LB(+glucose)-liquid medium so that the initial bacterial cell concentration OD610=0.05 was achieved. Simultaneously, 2-phenylethanol was added so that the final concentrations thereof became 0, 10, 20, 30, 40, and 50 mM, and aerobic shaking culture was carried out at 30° C. The growth of bacterial cells was determined by measuring the absorbance of OD610.
smiles,measurement,setting,value
OCCc1ccccc1 [2-phenylethanol],growth of Escherichia coli,Escherichia coli MG1655; 20 mM 2-phenylethanol,significantly inhibited; also recorded: strongly inhibited
same,growth of Escherichia coli,Escherichia coli MG1655; 30 mM 2-phenylethanol,substantially completely inhibited
same,growth of Corynebacterium glutamicum,[1]; 20 mM 2-phenylethanol,not influenced at all
same,growth of Corynebacterium glutamicum,[1]; 30 mM 2-phenylethanol,"delayed, but was improved 24 hours after"
same,growth of Kluyveromyces marxianus,Kluyveromyces marxianus; 20 mM 2-phenylethanol,strongly inhibited
same,growth of Kluyveromyces marxianus,Kluyveromyces marxianus; 30 mM 2-phenylethanol,substantially completely inhibited
same,growth of Pseudomonas putida,Pseudomonas putida S12; 20 mM 2-phenylethanol,strongly inhibited
same,growth of Pseudomonas putida,Pseudomonas putida S12; 30 mM 2-phenylethanol,substantially completely inhibited
